In publication PMC7064328 (Environmental Health Perspectives, 2020):

Test system: maternal liver
Assay: Maternal liver histopathology (H&E)
Assay type: in vivo, mouse (CD-1)
Details: for CA, any severity: % / CA, any severity: N / CA, marked: % / CA, marked: N / CA, minimal to mild: % / CA, minimal to mild: N / CA, moderate: % / CA, moderate: N / Focal regions of classic necrosis: % / Focal regions of classic necrosis: N / Increase in cell death: % / Increase in cell death: N / Increase in mitotic figures: % / Increase in mitotic figures: N / Vacuolation, any severity: % / Vacuolation, any severity: N / Vacuolation, mild: % / Vacuolation, mild: N / Vacuolation, minimal: % / Vacuolation, minimal: N / Vacuolation, moderate: % / Vacuolation, moderate: N: maternal liver
Text: From each uterus, first, viable embryos and their matched placentas were collected in succession within a horn and immediately snap frozen ( n=2–5 per litter ), and subsequent embryos were collected for growth measurements ( n=2–11 per litter ). Additional placentas were collected and placed in 4% paraformaldehyde (PFA) for histological analysis (Block 2 only). Amniotic fluid was collected by needle aspiration from litters euthanized at E11.5 and snap frozen in liquid nitrogen. Embryo livers were collected from litters euthanized at E17.5 and snap frozen in liquid nitrogen. Dam livers were weighed, a portion of the left lateral lobe was placed in 4% PFA for histology, and another portion of the same lobe was snap frozen in liquid nitrogen. A third liver section was obtained from Block 2 dams and fixed in McDowell and Trump’s fixative for electron microscopy (EM). Gross lesions were collected when observed and placed in 4% PFA for histology. Dam kidneys were removed, a cross section was prepared from the right kidney, a longitudinal section was prepared from the left kidney, and both sections were fixed in 4% PFA for histological analysis.
Dam livers, kidneys, and placentas were trimmed and embedded by the NIEHS Mouse Embryo Phenotyping Core. Tissues collected at necropsy were fixed in 4% PFA for 72 h and paraffin embedded, and 5-μm sections were prepared and stained with hematoxylin and eosin (H&E). Pathology was evaluated and a pathology review conducted by S.A.E. Diplomate American College of Veterinary Pathologists (DACVP). Pathology reviews were conducted as an informed approach analysis [e.g., nonblinded analysis; see Sills et al. ([2019])]. Select tissue slides were scanned using the AT2 Scanner (Aperio). Images were then captured for publication using the ImageScope software; version 12.3.0.5056 (Aperio). Serum and urine obtained from dams in Block 2 were analyzed using the AU480 clinical chemistry analyzer (Beckman Coulter Inc.). Reagents and calibration standards used to measure alkaline phosphatase (ALP), alanine aminotransferase (ALT), aspartate aminotransferase (AST), blood urea nitrogen (BUN), serum creatinine, urine creatinine, glucose (Glu), total protein (TP), triglyceride (Trig), high-density lipoprotein (HDL), cholesterol (Chol), and albumin (ALB) were purchased from Beckman Coulter Inc. Reagents for sorbitol dehydrogenase (SDH), total bile acid (TBA), and micro-TP were purchased from Sekisui Diagnostics. The reagent used to measure low-density lipoprotein (LDL) was purchased form Diazyme Laboratories.

N.O=C(O)C(F)(OC(F)(F)C(F)(F)C(F)(F)F)C(F)(F)F (centres unmarked) [GenX, ammonium 2,3,3,3-tetrafluoro-2-(heptafluoropropoxy)propanoate]
3: Increase in mitotic figures: N (E11.5, 2 mg/kg/d) | CA, marked: N (E11.5, 10 mg/kg/d) | Increase in cell death: N (E11.5, 10 mg/kg/d) | CA, moderate: N (E17.5, 2 mg/kg/d) | Vacuolation, mild: N (E17.5, 10 mg/kg/d)
60%: Increase in mitotic figures: % (E11.5, 2 mg/kg/d) | CA, marked: % (E11.5, 10 mg/kg/d) | Increase in cell death: % (E11.5, 10 mg/kg/d) | CA, moderate: % (E17.5, 2 mg/kg/d) | Vacuolation, mild: % (E17.5, 10 mg/kg/d)
80%: Increase in cell death: % (E11.5, 2 mg/kg/d) | Increase in mitotic figures: % (E11.5, 10 mg/kg/d)
0%: CA, marked: % (E11.5, 2 mg/kg/d) | CA, moderate: % (E11.5, 2 mg/kg/d) | Focal regions of classic necrosis: % (E11.5, 2 mg/kg/d) | Vacuolation, any severity: % (E11.5, 2 mg/kg/d) | Vacuolation, mild: % (E11.5, 2 mg/kg/d) | Vacuolation, minimal: % (E11.5, 2 mg/kg/d) | Vacuolation, moderate: % (E11.5, 2 mg/kg/d) | CA, minimal to mild: % (E11.5, 10 mg/kg/d) | Vacuolation, mild: % (E11.5, 10 mg/kg/d) | Vacuolation, moderate: % (E11.5, 10 mg/kg/d) | CA, marked: % (E17.5, 2 mg/kg/d) | Increase in cell death: % (E17.5, 2 mg/kg/d) | Increase in mitotic figures: % (E17.5, 2 mg/kg/d) | Vacuolation, any severity: % (E17.5, 2 mg/kg/d) | Vacuolation, mild: % (E17.5, 2 mg/kg/d) | Vacuolation, minimal: % (E17.5, 2 mg/kg/d) | Vacuolation, moderate: % (E17.5, 2 mg/kg/d) | CA, minimal to mild: % (E17.5, 10 mg/kg/d) | CA, moderate: % (E17.5, 10 mg/kg/d) | Increase in mitotic figures: % (E17.5, 10 mg/kg/d) | Vacuolation, moderate: % (E17.5, 10 mg/kg/d)
2: CA, moderate: N (E11.5, 10 mg/kg/d) | CA, minimal to mild: N (E17.5, 2 mg/kg/d) | Vacuolation, minimal: N (E17.5, 10 mg/kg/d)
5: CA, any severity: N (E11.5, 2 mg/kg/d) | CA, minimal to mild: N (E11.5, 2 mg/kg/d) | CA, any severity: N (E11.5, 10 mg/kg/d) | Vacuolation, any severity: N (E11.5, 10 mg/kg/d) | Vacuolation, minimal: N (E11.5, 10 mg/kg/d) | CA, any severity: N (E17.5, 2 mg/kg/d) | CA, any severity: N (E17.5, 10 mg/kg/d) | CA, marked: N (E17.5, 10 mg/kg/d) | Increase in cell death: N (E17.5, 10 mg/kg/d) | Vacuolation, any severity: N (E17.5, 10 mg/kg/d)
4: Increase in cell death: N (E11.5, 2 mg/kg/d) | Increase in mitotic figures: N (E11.5, 10 mg/kg/d)
20%: Focal regions of classic necrosis: % (E11.5, 10 mg/kg/d) | Focal regions of classic necrosis: % (E17.5, 2 mg/kg/d) | Focal regions of classic necrosis: % (E17.5, 10 mg/kg/d)
1: Focal regions of classic necrosis: N (E11.5, 10 mg/kg/d) | Focal regions of classic necrosis: N (E17.5, 2 mg/kg/d) | Focal regions of classic necrosis: N (E17.5, 10 mg/kg/d)
0: CA, marked: N (E11.5, 2 mg/kg/d) | CA, moderate: N (E11.5, 2 mg/kg/d) | Focal regions of classic necrosis: N (E11.5, 2 mg/kg/d) | Vacuolation, any severity: N (E11.5, 2 mg/kg/d) | Vacuolation, mild: N (E11.5, 2 mg/kg/d) | Vacuolation, minimal: N (E11.5, 2 mg/kg/d) | Vacuolation, moderate: N (E11.5, 2 mg/kg/d) | CA, minimal to mild: N (E11.5, 10 mg/kg/d) | Vacuolation, mild: N (E11.5, 10 mg/kg/d) | Vacuolation, moderate: N (E11.5, 10 mg/kg/d) | CA, marked: N (E17.5, 2 mg/kg/d) | Increase in cell death: N (E17.5, 2 mg/kg/d) | Increase in mitotic figures: N (E17.5, 2 mg/kg/d) | Vacuolation, any severity: N (E17.5, 2 mg/kg/d) | Vacuolation, mild: N (E17.5, 2 mg/kg/d) | Vacuolation, minimal: N (E17.5, 2 mg/kg/d) | Vacuolation, moderate: N (E17.5, 2 mg/kg/d) | CA, minimal to mild: N (E17.5, 10 mg/kg/d) | CA, moderate: N (E17.5, 10 mg/kg/d) | Increase in mitotic figures: N (E17.5, 10 mg/kg/d) | Vacuolation, moderate: N (E17.5, 10 mg/kg/d)
40%: CA, moderate: % (E11.5, 10 mg/kg/d) | CA, minimal to mild: % (E17.5, 2 mg/kg/d) | Vacuolation, minimal: % (E17.5, 10 mg/kg/d)
100%: Incidence of livers with adverse outcomes including cytoplasmic alteration (all dose groups, E11.5 and E17.5) | CA, any severity: % (E11.5, 2 mg/kg/d) | CA, minimal to mild: % (E11.5, 2 mg/kg/d) | CA, any severity: % (E11.5, 10 mg/kg/d) | Vacuolation, any severity: % (E11.5, 10 mg/kg/d) | Vacuolation, minimal: % (E11.5, 10 mg/kg/d) | CA, any severity: % (E17.5, 2 mg/kg/d) | CA, any severity: % (E17.5, 10 mg/kg/d) | CA, marked: % (E17.5, 10 mg/kg/d) | Increase in cell death: % (E17.5, 10 mg/kg/d) | Vacuolation, any severity: % (E17.5, 10 mg/kg/d)
